We go through two substances from patent publication US20140005119A1, “COMPOSITIONS AND METHODS FOR INHIBITING THE ACTIVITY OF P110a MUTANT PROTEINS” (Case Western Reserve University, priority 2012, published 2014).

Bridges are numbered along the chain shown (N, C = ends). Where no end group is shown, it is not given here. [ ]: non-standard residue; d: D form. S5 = C=CCCC[C@](C)(N)C(=O)O

Test [1] concerns the target T1, IRS1-p110α E545K interaction in DLD1 cells (Homo sapiens, UniProt P35568).
T1 construct: endogenous in cells; host or cells: DLD1 p110α E545K 3×FLAG knock-in cells (rAAV gene targeting of the endogenous allele)
T1 sequence (P35568 1-1242): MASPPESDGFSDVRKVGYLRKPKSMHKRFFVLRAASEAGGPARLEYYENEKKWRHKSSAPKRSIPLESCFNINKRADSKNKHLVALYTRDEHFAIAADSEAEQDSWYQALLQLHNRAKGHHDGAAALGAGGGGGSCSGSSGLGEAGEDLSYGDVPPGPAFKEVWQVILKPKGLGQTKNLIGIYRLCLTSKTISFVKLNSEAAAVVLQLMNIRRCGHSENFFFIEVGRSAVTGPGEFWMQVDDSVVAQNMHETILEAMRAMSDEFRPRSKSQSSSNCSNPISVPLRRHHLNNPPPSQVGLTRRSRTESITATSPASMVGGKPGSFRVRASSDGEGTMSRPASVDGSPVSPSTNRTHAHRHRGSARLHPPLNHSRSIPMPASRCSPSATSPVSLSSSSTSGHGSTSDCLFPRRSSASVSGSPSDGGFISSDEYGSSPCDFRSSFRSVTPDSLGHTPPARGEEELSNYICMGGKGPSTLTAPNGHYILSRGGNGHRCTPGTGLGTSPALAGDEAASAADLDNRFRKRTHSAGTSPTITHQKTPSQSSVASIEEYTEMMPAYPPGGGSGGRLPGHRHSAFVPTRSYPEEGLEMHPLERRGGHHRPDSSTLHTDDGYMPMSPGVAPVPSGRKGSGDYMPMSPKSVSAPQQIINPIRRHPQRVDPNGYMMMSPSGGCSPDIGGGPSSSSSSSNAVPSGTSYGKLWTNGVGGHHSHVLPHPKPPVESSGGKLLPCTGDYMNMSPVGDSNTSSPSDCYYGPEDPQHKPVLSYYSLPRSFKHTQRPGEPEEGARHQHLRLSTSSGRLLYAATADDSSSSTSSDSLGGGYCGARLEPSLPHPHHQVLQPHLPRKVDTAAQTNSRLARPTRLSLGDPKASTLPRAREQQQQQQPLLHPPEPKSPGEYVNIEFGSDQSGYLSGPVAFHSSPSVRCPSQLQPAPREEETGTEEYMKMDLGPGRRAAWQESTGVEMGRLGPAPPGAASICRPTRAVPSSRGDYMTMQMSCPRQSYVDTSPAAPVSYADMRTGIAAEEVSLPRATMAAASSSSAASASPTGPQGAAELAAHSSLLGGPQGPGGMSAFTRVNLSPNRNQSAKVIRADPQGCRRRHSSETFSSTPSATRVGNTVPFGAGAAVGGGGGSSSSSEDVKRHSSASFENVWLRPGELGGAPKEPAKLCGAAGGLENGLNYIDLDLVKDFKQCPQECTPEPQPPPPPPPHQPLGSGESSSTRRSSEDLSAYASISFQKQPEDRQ
The experiment in a line: Co-IP after peptide added to culture medium of p110α E545K 3×FLAG KI DLD1 cells. Type of test: cell-based. Also noted: dose or concentration left out as unconfirmed. The following applies: peptide added to cell culture medium for 16 hr. As to the method:
FIG. 4(A-F) illustrate: (A) Schematic diagram of linear and stapled WT and mutant peptides derived from p110α (SEQ ID NOs: 5, 6, 7 and 8). (B) Immunoblots of cell lysates immunoprecipitated with beads conjugated with anti-FLAG antibodies and then blotted with the indicated antibodies. Linear or stapled WT and mutant peptide were added into culture medium of the p110α E545K 3×FLAG KI cells for 16 hr. (C) Immunoblots of cell lysates immunoprecipitated with anti-p110α antibodies and then blotted with the indicated antibodies. Vaco481 CRC cells were treated with the stapled mutant peptides at the indicated concentration. (D) Immunoblots of cell lysates blotted with the indicated antibodies. The indicated cell lines were treated with the stapled mutant peptide. (E) Immunoblots of cell lysates blotted with the indicated antibodies. The indicated cancer cell lines were treated or untreated with stapled WT or mutant peptide at […] for 2 hr. (F) Immunoblots of cell lysates were blotted with the indicated antibodies. The indicated cancer cell lines were treated with or without […] of stapled mutant peptide for 2 hr.
For Co-immunoprecipitation (Co-IP), cells were harvested, washed with PBS, and then lysed in IP buffer (50 mMTris [pH 7.4], 150 mMNaCl, 5 mMEDTA [pH 8.0], 0.5% NP40, 1 mM PMSF, complete Protease Inhibitor Cocktail tablet [Roche]; supplemented with phosphatase inhibitors [1 mM Na3VO4, 20 mM NaF, 0.1 mM b-glycerophosphate, 20 mM sodium pyrophosphate] when necessary). For immunoblotting (IB) of phospho-specific proteins, unless stated otherwise, cells were lysed in urea buffer (100 mM NaH2PO4, 10 mM Tris-HCl, 8 M Urea, 1 mM Na3VO4, 20 mM NaF, 0.1 mM β-glycerophosphate, 20 mM sodium pyrophosphate, supplemented with complete Protease Inhibitor Cocktail tablet [Roche], pH 8.0). Lysates were then cleared by centrifugation (14,000 rpm, 10 min) and protein concentration in supernatants was determined with a BCA protein assay kit (Pierce, Rockford, Ill.). Equal amounts of total protein were used for IP or IB.

In test [2] the test system is DLD1 xenograft tumor (p110α E545K). In words: Peptide treatment of DLD1 xenograft tumors in athymic nude mice. The test is classed as in vivo. The following applies: intratumoral 250 μg daily for 14 days, versus water control. As to the method: FIGS. 5(A-D) illustrate: (A) An athymic nude mouse with a xenograft Tumor growth of cancer cells harboring the p110α E545K Mutation (A and B) and treated with Stapled p110α E545K Mutant Peptide. Five million DLD1 cells were injected subcutaneously and bilaterally into athymic nude mice. Once the xenograft tumors reach 100-150 mm^3, the left side tumors were injected with the stapled WT peptide and the right side tumors were injected with the stapled mutant peptide daily for 14 days. Ten tumors of similar size in five other athymic nude mice were injected with an equal amount of water as controls. Tumor sizes were measured every 2 days. Representative pictures of mice injected with the peptides are shown in (A) and quantitative measurements are shown in (B). Arrows indicate tumors treated with the stapled WT peptide and the red arrows indicate tumors treated with the stapled mutant peptide. The p value was calculated using ANOVA analysis. […] All quantitative measurements are plotted as mean±SEM.
Animal experiments were approved by the Case Western Reserve University Animal Care and Use Committee. […] Tumor volume was measured with electronic calipers, and volumes were calculated as length 3 width^2/2.
Five-week-old male athymic nude mice were injected with 5 million cells subcutaneously and bilaterally. […] The tumor sizes were measured every 2 days.

Test [3] deals with HCT116 xenograft tumor (p110α H1047R). The experiment in a line: Peptide treatment of HCT116 xenograft tumors in athymic nude mice. The test is classed as in vivo. The settings on record: intratumoral 250 μg daily for 14 days.

With “H2N-SEITEQEKD^549-FLW-S^553-HRHYC-COOH (SEITEQEK[S5]FLW[S5]HRHYC; staple 9-13; not fully specified (N-terminus, C-terminus); printed as H2N-SEITEQEKD549-FLW-S553-HRHYC-COOH; listed as Homo sapiens) [stapled WT peptide, stapled wild-type p110α counterpart of the stapled mutant peptide, used as control, reference compound]”, the “disruption of IRS1-p110α E545K interaction in DLD1 cells” value in test [1] is given as “neither the linear mutant peptide nor the stapled WT peptide affected the interaction”. Besides, the “DLD1 xenograft tumor growth” value in test [2] is recorded as “did not inhibit”. Moreover, the “xenograft tumor growth of HCT116 CRC cells” value in test [3] was “neither the stapled WT nor the stapled mutant peptide inhibited”.
As for “H2N-SEITKQEK-D^549-FLW-S^553-HRHYC-COOH [stapled mutant peptide]”, the “disruption of IRS1-p110α E545K interaction in DLD1 cells” value in test [1] is listed as “effectively disrupted”. Further, the “DLD1 xenograft tumor growth” value in test [2] is on record as “significantly slowed”. Also, in test [3], the “xenograft tumor growth of HCT116 CRC cells” value was “neither the stapled WT nor the stapled mutant peptide inhibited”.
